Measurements as given in publication PMC7413254 (Nature Communications, 2020).
Read-outs that look alike come from different tables or passages of the source.

Tests used:
PfNT1 = target: T1, PfNT1 (Plasmodium falciparum, UniProt Q8IDM6); test: cell-based; format: cell-based; details: for activity at 5000 µM: total [3H]CQ transport
T1 construct: expressed in transfected cells; host or cells: Xenopus laevis oocytes (stage V-VI), cRNA-injected
In short: (§1)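 Oocytes (ten per treatment, ≥4 independent frogs/days) were preloaded by injecting VF-6 in 25 nL ND96 at pH 5.0, 5.5, 6.0 or 7.0, or Na^+-free choline buffer, then uptake run 1.5 h, 27.5 °C, ND96 pH 5.5 by default. Internal concentrations assumed ~400 nL oocyte volume.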

PfCRT^Ecu1110 [1] = target: T2, PfCRT^Ecu1110 (Plasmodium falciparum, UniProt Q9N623, A220S/I356L/K76T/N326D); test: cell-based; format: cell-based; details: […]
T2 sequence (Q9N623 whole entry A220S/I356L/K76T/N326D): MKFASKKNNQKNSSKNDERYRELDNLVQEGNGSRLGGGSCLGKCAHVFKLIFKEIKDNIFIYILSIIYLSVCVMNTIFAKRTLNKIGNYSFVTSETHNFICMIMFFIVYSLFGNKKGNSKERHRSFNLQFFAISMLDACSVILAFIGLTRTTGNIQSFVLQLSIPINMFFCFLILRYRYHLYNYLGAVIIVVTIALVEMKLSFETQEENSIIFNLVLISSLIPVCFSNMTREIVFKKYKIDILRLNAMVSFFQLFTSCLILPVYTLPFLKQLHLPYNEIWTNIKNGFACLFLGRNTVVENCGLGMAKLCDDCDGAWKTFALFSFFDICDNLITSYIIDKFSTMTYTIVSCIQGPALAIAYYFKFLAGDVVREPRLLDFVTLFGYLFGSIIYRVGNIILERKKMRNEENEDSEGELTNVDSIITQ
In short: as §1

PfCRT^Dd2 [2] = target: T3, PfCRT^Dd2 (Plasmodium falciparum, UniProt Q9N623, A220S/I356T/K76T/M74I/N326S/N75E/Q271E/R371I); test: cell-based; format: cell-based; details: […]; for activity at 45000 µM: [test solute]i = 45 mM (30 mM for some solutes due to solubility)
T3 sequence (Q9N623 whole entry A220S/I356T/K76T/M74I/N326S/N75E/Q271E/R371I): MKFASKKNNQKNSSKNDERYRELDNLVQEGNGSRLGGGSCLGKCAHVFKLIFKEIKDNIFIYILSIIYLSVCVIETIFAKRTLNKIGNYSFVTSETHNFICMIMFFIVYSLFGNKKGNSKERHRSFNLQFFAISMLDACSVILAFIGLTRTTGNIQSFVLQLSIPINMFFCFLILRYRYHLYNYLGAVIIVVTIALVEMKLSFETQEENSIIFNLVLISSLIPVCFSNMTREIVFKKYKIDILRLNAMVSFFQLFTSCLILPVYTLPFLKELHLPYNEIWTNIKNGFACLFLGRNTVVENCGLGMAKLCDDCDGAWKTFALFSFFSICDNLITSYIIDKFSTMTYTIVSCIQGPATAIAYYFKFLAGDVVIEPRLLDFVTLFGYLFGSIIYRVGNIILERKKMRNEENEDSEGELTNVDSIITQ
In short: as §1

PfCRT^3D7 [3] = target: T4, PfCRT^3D7 (Plasmodium falciparum, UniProt Q8IBZ9); test: cell-based; format: cell-based
T4 sequence (Q8IBZ9 59-398): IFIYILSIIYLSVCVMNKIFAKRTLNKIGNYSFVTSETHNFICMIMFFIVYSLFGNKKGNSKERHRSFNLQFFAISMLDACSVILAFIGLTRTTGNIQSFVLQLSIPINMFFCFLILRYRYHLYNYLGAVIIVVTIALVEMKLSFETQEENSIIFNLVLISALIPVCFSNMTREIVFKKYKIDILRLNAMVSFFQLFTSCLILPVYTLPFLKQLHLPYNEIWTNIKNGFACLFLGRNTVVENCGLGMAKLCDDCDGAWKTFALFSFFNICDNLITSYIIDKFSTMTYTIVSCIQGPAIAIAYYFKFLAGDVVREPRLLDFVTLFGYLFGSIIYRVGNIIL
In short: as §1

PfCRT [4] = test: Test of solutes as potential co-substrates for influx of VF-6 via PfCRT into the oocyte; format: cell-based, Plasmodium falciparum; parameters: key: X: Compounds that have been tested as potential co-substrates but are not required for influx of VF-6 via PfCRT into the oocyte; details: X = tested
PfCRT^Ecu1110 [5] = target: T2, PfCRT^Ecu1110; test: [3H]CQ uptake into Xenopus oocytes, cis-inhibition by unlabelled solute; format: cell-based
In short: (§2)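 ND96, pH 5.5, 1.5 h, 27.5 °C; uptake direction acidic outside → oocyte cytosol, mimicking efflux from digestive vacuole. Ice-cold wash stop, 10% SDS lysis, scintillation counting. Ten oocytes/treatment, ≥4 independent experiments.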

PfCRT^Dd2 [6] = target: T3, PfCRT^Dd2; test: as above; format: cell-based
In short: as §2

PfCRT^3D7 [7] = target: T4, PfCRT^3D7; test: cell-based; format: cell-based; details: total [3H]CQ transport; for inhibition at 500 µM: [test solute] = 0.5 mM; for inhibition at 1000 µM: [test solute] = 1 mM; for inhibition at 2000 µM: [test solute] = 2 mM
In short: as §2

PfCRT [8] = test: Potential co-substrates tested for influx of VF-6 via PfCRT into the oocyte; format: cell-based, Plasmodium falciparum; parameters: key: X: Compounds that have been tested as potential co-substrates but are not required for influx of VF-6 via PfCRT into the oocyte
non-expressing oocytes [9] = format: cell-based, Xenopus laevis; details: total [3H]CQ transport; for Uptake of [3H]CQ (% non-expressing oocyte control), trans-stimulation: non-expressing oocytes, normalised to the oocyte type control; for Uptake of [3H]CQ (% PfCRTDd2 control), trans-stimulation, non-expressing oocytes: mean ± SEM, SEM
In short: as §1

non-expressing oocytes [10] = test: cells; format: cell-based, Xenopus laevis; details: Xenopus laevis, total [3H]CQ transport; for inhibition at 500 µM: [test solute] = 0.5 mM; for inhibition at 1000 µM: [test solute] = 1 mM; for inhibition at 2000 µM: [test solute] = 2 mM
In short: as §2

[11] = read-out: PfCRT-mediated [3H]CQ transport, cis-inhibition (% PfCRTEcu1110 control)
[12] = read-out: Uptake of [3H]CQ (% PfCRTDd2 control), cis-inhibition, PfCRTEcu1110, SEM
[13] = read-out: Uptake of [3H]CQ (% PfCRTEcu1110 control), cis-inhibition
[14] = read-out: [3H]CQ transport (% PfCRTEcu1110 control), cis-inhibition, PfCRTEcu1110, SEM
[15] = read-out: PfCRT-mediated [3H]CQ transport, cis-inhibition (% PfCRTDd2 control)
[16] = read-out: Uptake of [3H]CQ (% PfCRTDd2 control), cis-inhibition, PfCRTDd2, SEM
[17] = PfCRT3D7 oocytes, normalised to the oocyte type control, read-out: Uptake of [3H]CQ (% PfCRT3D7 control), cis-inhibition
[18] = mean ± SEM, SEM, read-out: Uptake of [3H]CQ (% PfCRTDd2 control), cis-inhibition, PfCRT3D7
[19] = Oocyte, mean ± SEM, SEM, read-out: Uptake of [3H]CQ (% PfCRTDd2 control), cis-inhibition, non-expressing oocytes
[20] = non-expressing oocytes, normalised to the oocyte type control, read-out: Uptake of [3H]CQ (% non-expressing oocyte control), cis-inhibition

T1 sequence (Q8IDM6 whole entry): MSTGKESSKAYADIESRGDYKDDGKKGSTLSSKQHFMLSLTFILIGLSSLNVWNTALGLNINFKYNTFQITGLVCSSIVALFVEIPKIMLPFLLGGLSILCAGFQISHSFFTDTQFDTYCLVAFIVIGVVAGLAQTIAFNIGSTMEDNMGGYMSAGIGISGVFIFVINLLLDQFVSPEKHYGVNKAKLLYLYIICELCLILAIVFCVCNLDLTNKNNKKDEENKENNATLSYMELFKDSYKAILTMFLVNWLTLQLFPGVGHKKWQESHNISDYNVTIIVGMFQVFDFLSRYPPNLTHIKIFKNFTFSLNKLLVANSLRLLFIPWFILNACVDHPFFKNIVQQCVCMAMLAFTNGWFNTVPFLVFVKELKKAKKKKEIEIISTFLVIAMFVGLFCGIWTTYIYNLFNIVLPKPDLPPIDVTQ

N[C@@H](CO)C(=O)O [L-serine] was tested, and the activity at 5000 µM (PfNT1; PfNT1 oocytes, [test solute]i = 5 mM, normalised to the oocyte type control, read-out: Uptake of [3H]CQ (% PfNT1 control), trans-stimulation) was 98 ± 2.6%, the activity at 45000 µM (PfNT1; SEM, read-out: Uptake of [3H]CQ (% PfCRTDd2 control), trans-stimulation, PfNT1) was 2.3 ± 0.06% and the activity at 45000 µM (PfNT1; read-out: Uptake of [3H]CQ (% PfNT1 control), trans-stimulation) was 98 ± 2.6%. The activity at 5000 µM (PfNT1; [test solute]i = 5 mM (intracellular), mean ± SEM, SEM, read-out: Uptake of [3H]CQ (% PfCRTDd2 control), trans-stimulation, PfNT1) was 3 ± 0.02%, the activity at 5000 µM (PfCRT^Ecu1110 [1]; pH 5.5, read-out: PfCRT-mediated [3H]CQ transport, trans-stimulation (% PfCRTEcu1110 control), [test solute]i = 5 mM (intracellular), PfCRTEcu1110 oocytes, normalised to oocyte type control) was 98 ± 3.1% and the activity at 5000 µM (PfCRT^Ecu1110 [1]; pH 5.5, read-out: Uptake of [3H]CQ (% PfCRTEcu1110 control), trans-stimulation, PfCRTEcu1110 oocytes, [test solute]i = 5 mM, total [3H]CQ transport, normalised to the oocyte type control) was 100 ± 2.5%. It also gave an activity at 45000 µM (PfCRT^Ecu1110 [1]; pH 5.5, read-out: Uptake of [3H]CQ (% PfCRTEcu1110 control), trans-stimulation, PfCRTEcu1110 oocytes, [test solute]i = 45 mM (30 mM for some solutes due to solubility), total [3H]CQ transport, normalised to the oocyte type control) of 98 ± 3.1%, an activity at 5000 µM (PfCRT^Ecu1110 [1]; read-out: Uptake of [3H]CQ (% PfCRTDd2 control), trans-stimulation, PfCRTEcu1110, total [3H]CQ transport, [test solute]i = 5 mM (intracellular), mean ± SEM, SEM) of 36 ± 1.7% and an activity at 45000 µM (PfCRT^Ecu1110 [1]; read-out: Uptake of [3H]CQ (% PfCRTDd2 control), trans-stimulation, PfCRTEcu1110, total [3H]CQ transport, [test solute]i = 45 mM (intracellular; 30 mM for some solutes due to solubility), mean ± SEM, SEM) of 35 ± 1.6%. It also gave an activity at 5000 µM (PfCRT^Dd2 [2]; pH 5.5, read-out: PfCRT-mediated [3H]CQ transport, trans-stimulation (% PfCRTDd2 control), [test solute]i = 5 mM (intracellular), PfCRTDd2 oocytes, normalised to oocyte type control) of 97 ± 4.4%, an activity at 5000 µM (PfCRT^Dd2 [2]; pH 5.5, read-out: Uptake of [3H]CQ (% PfCRTDd2 control), trans-stimulation, PfCRTDd2, total [3H]CQ transport, [test solute]i = 5 mM (intracellular), mean ± SEM, SEM) of 99 ± 3.2% and an activity at 5000 µM (PfCRT^Dd2 [2]; pH 5.5, read-out: Uptake of [3H]CQ (% PfCRTDd2 control), trans-stimulation, PfCRTDd2 oocytes, [test solute]i = 5 mM, total [3H]CQ transport, normalised to the oocyte type control) of 99 ± 3.2%. For the same molecule, the activity at 45000 µM (PfCRT^Dd2 [2]; pH 5.5, read-out: Uptake of [3H]CQ (% PfCRTDd2 control), trans-stimulation, PfCRTDd2 oocytes, total [3H]CQ transport, normalised to the oocyte type control) was 100 ± 2.9%, the activity at 5000 µM (PfCRT^Dd2 [2]; pH 5.5, read-out: [3H]CQ transport (% PfCRTDd2 control), trans-stimulation, PfCRTDd2, trans-stimulation, [test solute]i = 5 mM (injected), PfCRT-mediated component (background subtracted), mean ± SEM, SEM) was 97 ± 4.4% and the activity at 45000 µM (PfCRT^Dd2 [2]; pH 5.5, read-out: [3H]CQ transport (% PfCRTDd2 control), trans-stimulation, PfCRTDd2, trans-stimulation, PfCRT-mediated component (background subtracted), mean ± SEM, SEM) was 98 ± 3.6%. For the same molecule, the activity at 5000 µM (PfCRT^3D7 [3]; PfCRT3D7 oocytes, [test solute]i = 5 mM, total [3H]CQ transport, normalised to the oocyte type control, read-out: Uptake of [3H]CQ (% PfCRT3D7 control), trans-stimulation) was 100 ± 3.6%, the “[3H]CQ transport (% PfCRT3D7 control), trans-stimulation, PfCRT3D7” value (PfCRT^3D7 [3]; SEM) was 0.3 ± 0.01 % PfCRT3D7 control and the activity at 5000 µM (PfCRT^3D7 [3]; [test solute]i = 5 mM (intracellular), PfCRT3D7 oocytes, normalised to oocyte type control, read-out: PfCRT-mediated [3H]CQ transport, trans-stimulation (% PfCRT3D7 control)) was 98 ± 4.1%. The activity at 45000 µM (PfCRT^3D7 [3]; SEM, read-out: Uptake of [3H]CQ (% PfCRTDd2 control), trans-stimulation, PfCRT3D7) was 3.3 ± 0.06%, the activity at 45000 µM (PfCRT^3D7 [3]; read-out: PfCRT-mediated [3H]CQ transport, trans-stimulation (% PfCRT3D7 control)) was 97 ± 4.5% and the activity at 45000 µM (PfCRT^3D7 [3]; read-out: Uptake of [3H]CQ (% PfCRT3D7 control), trans-stimulation) was 99 ± 3.7%. For the same molecule, the activity at 5000 µM (PfCRT^3D7 [3]; total [3H]CQ transport, [test solute]i = 5 mM (intracellular), mean ± SEM, SEM, read-out: Uptake of [3H]CQ (% PfCRTDd2 control), trans-stimulation, PfCRT3D7) was 3.3 ± 0.06%, the “Tested as potential co-substrate but not required for influx of VF-6 via PfCRT into the oocyte” value (PfCRT [4]) was “X” and the inhibition at 500 µM (PfCRT^Ecu1110 [5]; [11]) was 97 ± 1.5%. It also gave an inhibition at 1000 µM (PfCRT^Ecu1110 [5]; [11]) of 97 ± 3.5%, an inhibition at 2000 µM (PfCRT^Ecu1110 [5]; [11]) of 98 ± 3.2% and an inhibition at 500 µM (PfCRT^Ecu1110 [5]; [12]) of 32 ± 1.9%. For the same molecule, the inhibition at 1000 µM (PfCRT^Ecu1110 [5]; [12]) was 32 ± 2.1%, the inhibition at 2000 µM (PfCRT^Ecu1110 [5]; [12]) was 33 ± 1.8% and the inhibition at 500 µM (PfCRT^Ecu1110 [5]; [13]) was 101 ± 2.2%. It also gave an inhibition at 1000 µM (PfCRT^Ecu1110 [5]; [13]) of 101 ± 1.7%, an inhibition at 2000 µM (PfCRT^Ecu1110 [5]; [13]) of 100 ± 2.2% and an inhibition at 500 µM (PfCRT^Ecu1110 [5]; [14]) of 29 ± 1.7%. For the same molecule, the inhibition at 1000 µM (PfCRT^Ecu1110 [5]; [14]) was 29 ± 1.1%, the inhibition at 2000 µM (PfCRT^Ecu1110 [5]; [14]) was 30 ± 0.6% and the inhibition at 500 µM (PfCRT^Dd2 [6]; [15]) was 99 ± 4.6%. The inhibition at 2000 µM (PfCRT^Dd2 [6]; [15]) was 94 ± 2.1%, the inhibition at 500 µM (PfCRT^Dd2 [6]; [16]) was 101 ± 3.3% and the inhibition at 1000 µM (PfCRT^Dd2 [6]; [16]) was 98 ± 2.6%. The inhibition at 2000 µM (PfCRT^Dd2 [6]; [16]) was 96 ± 3.5%, the inhibition at 500 µM (PfCRT^3D7 [7]; [17]) was 98 ± 3.1% and the inhibition at 1000 µM (PfCRT^3D7 [7]; [17]) was 100 ± 3.6%. The inhibition at 2000 µM (PfCRT^3D7 [7]; [17]) was 98 ± 3.6%, the inhibition at 500 µM (PfCRT^3D7 [7]; [18]) was 3.1 ± 0.06% and the inhibition at 1000 µM (PfCRT^3D7 [7]; [18]) was 2.2 ± 0.03%. The inhibition at 2000 µM (PfCRT^3D7 [7]; [18]) was 2.6 ± 0.08%, the “Tested as potential co-substrate but not required for influx of VF-6 via PfCRT into the oocyte” value (PfCRT [8]) was “X” and the “Uptake of [3H]CQ (% non-expressing oocyte control), trans-stimulation” value (non-expressing oocytes [9]; [test solute]i = 5 mM) was 100 ± 3.1 % non-expressing oocyte control. The “Uptake of [3H]CQ (% non-expressing oocyte control), trans-stimulation” value (non-expressing oocytes [9]; [test solute]i = 45 mM (30 mM for some solutes due to solubility)) was 101 ± 2.8 % non-expressing oocyte control, the “Uptake of [3H]CQ (% PfCRTDd2 control), trans-stimulation, non-expressing oocytes” value (non-expressing oocytes [9]; [test solute]i = 5 mM (intracellular)) was 2.8 ± 0.03 % PfCRTDd2 control and the “Uptake of [3H]CQ (% PfCRTDd2 control), trans-stimulation, non-expressing oocytes” value (non-expressing oocytes [9]; [test solute]i = 45 mM (intracellular; 30 mM for some solutes due to solubility)) was 2.2 ± 0.01 % PfCRTDd2 control. For the same molecule, the inhibition at 500 µM (non-expressing oocytes [10]; [19]) was 2.9 ± 0.06%, the inhibition at 1000 µM (non-expressing oocytes [10]; [19]) was 3.6 ± 0.09% and the inhibition at 2000 µM (non-expressing oocytes [10]; [19]) was 3.2 ± 0.1%. It also gave an inhibition at 500 µM (non-expressing oocytes [10]; [20]) of 100 ± 4.3%, an inhibition at 1000 µM (non-expressing oocytes [10]; [20]) of 99 ± 3.7% and an inhibition at 2000 µM (non-expressing oocytes [10]; [20]) of 99 ± 5.2%.
